pIC50: −log10 of the molar value.
Columns and labels:
[1] = system: BaF3; experiment: cells; details: Mus musculus, BaF3, 72 h
Description: Antiproliferative activity against mouse BA/F3 cells after 3 days by MTS assay

[2] = system: BaF3; experiment: cells; details: Mus musculus, BaF3, 72 h; remark: listed apart in the source
Description: Antiproliferative activity against mouse BA/F3 cells expressing ABL T315I mutant after 3 days by MTS assay

[3] = system: BaF3; experiment: cells; details: Mus musculus, BaF3, 72 h; remark: listed apart in the source
Description: Antiproliferative activity against mouse BA/F3 cells expressing wild type ABL after 3 days by MTS assay

[4] = Half life in CD rat at 15 mg/kg, po by LC-MS/MS analysis; type: ADME, organism-based; set-up: dose 15 mg/kg, route oral; details: in vivo
[5] = system: Rattus norvegicus; experiment: Dose normalized AUC (0 to 24 hrs) in CD rat at 15 mg/kg, po by LC-MS/MS analysis; type: ADME, organism-based; set-up: time < 24 hr, dose 15 mg/kg, route oral; details: in vivo
[6] = AUC (0 to 24 hrs) in mouse at 30 mg/kg, po by LC-MS/MS analysis; details: plasma
[7] = Cmax in CD rat at 15 mg/kg, po by LC-MS/MS analysis; type: ADME, organism-based; set-up: dose 15 mg/kg, route oral; details: CD, in vivo
[8] = Half life in mouse at 30 mg/kg, po by LC-MS/MS analysis; details: in vivo
[9] = Clearance in CD rat at 5 mg/kg, iv by LC-MS/MS analysis; type: ADME, organism-based; set-up: dose 5 mg/kg, route intravenous; details: in vivo
[10] = Half life in CD rat at 5 mg/kg, iv by LC-MS/MS analysis; type: ADME, organism-based; set-up: dose 5 mg/kg, route intravenous; details: in vivo
[11] = Volume of distribution in CD rat at 5 mg/kg, iv by LC-MS/MS analysis; type: ADME, organism-based; set-up: dose 5 mg/kg, route intravenous; details: in vivo
[12] = Cmax in mouse at 30 mg/kg, po by LC-MS/MS analysis; details: in vivo
[13] = Oral bioavailability in CD rat at 15 mg/kg by LC-MS/MS analysis; type: ADME, organism-based; details: in vivo
[14] = Tmax in CD rat at 15 mg/kg, po by LC-MS/MS analysis; type: ADME, organism-based; set-up: dose 15 mg/kg, route oral; details: in vivo

Compound: Cc1ccc(C(=O)Nc2ccc(CN3CCCN(C)CC3)c(C(F)(F)F)c2)cc1C#Cc1cnc2ccccn12
- pIC50 [1]: 5.73
- pIC50 [2]: 6.80
- pIC50 [3]: 8.08

Compound: Cc1ccc(C(=O)Nc2cc(C(F)(F)F)ccn2)cc1C#Cn1cnc2c(NC3CC3)ncnc21
- half-life [4]: 1.5 h
- pIC50 [2]: 6.26
- pIC50 [3]: 8.70
- AUC [5]: 11.8 ng·h/mL/mg/kg

Compound: Cc1ccc(C(=O)Nc2cc(C(F)(F)F)on2)cc1/C=C/n1cnc2c(NC3CC3)ncnc21
- pIC50 [2]: 5.15
- pIC50 [3]: 7.92

Compound: Cc1ccc(C(=O)Nc2ccc(OC3CCN(C)CC3)c(C(F)(F)F)c2)cc1C#Cc1cnc2ccccn12
- pIC50 [1]: 6.00
- pIC50 [2]: 7.11
- pIC50 [3]: 8.47

Compound: CCN1CCN(Cc2ccc(NC(=O)c3ccc(C)c(C#Cc4cnc5ccccn45)c3)cc2C(F)(F)F)CC1
- pIC50 [1]: 5.71
- pIC50 [2]: 7.31
- pIC50 [3]: 8.28

Compound: Cc1ccc(C(=O)Nc2ccc(CN3CCNCC3)c(C(F)(F)F)c2)cc1C#Cc1cnc2ccccn12
- pIC50 [1]: 5.68
- pIC50 [2]: 7.66
- pIC50 [3]: 8.46

Compound: Cc1ccc(C(=O)Nc2ccc(CN3CCNC(C)C3)c(C(F)(F)F)c2)cc1C#Cc1cnc2ccccn12 (centres undefined)
- pIC50 [1]: 5.40
- pIC50 [2]: 6.69
- pIC50 [3]: 8.02

Compound: Cc1ccc(C(=O)Nc2cc(-n3cnc(CN4CCCC4)c3)cc(C(F)(F)F)c2)cc1C#Cc1cnc2ccccn12
- pIC50 [1]: 5.45
- pIC50 [2]: 6.87
- pIC50 [3]: 8.03

Compound: Cc1ccc(C(=O)Nc2ccc(CN3CCN(C(C)C)CC3)c(C(F)(F)F)c2)cc1C#Cc1cnc2ccccn12
- pIC50 [1]: 5.78
- pIC50 [2]: 7.37
- pIC50 [3]: 8.10

Compound: Cc1ccc(C(=O)Nc2ccc(CN3CCN(CCO)CC3)c(C(F)(F)F)c2)cc1C#Cc1cnc2ccccn12
- pIC50 [1]: 5.71
- pIC50 [2]: 7.38
- pIC50 [3]: 8.64

Compound: Cc1ccc(C(=O)Nc2ccc(CN3CCN(CCF)CC3)c(C(F)(F)F)c2)cc1C#Cc1cnc2ccccn12
- pIC50 [1]: 6.01
- pIC50 [2]: 6.78
- pIC50 [3]: 8.40

Compound: Cc1ccc(C(=O)Nc2cc(-n3ccnc3CN(C)C)cc(C(F)(F)F)c2)cc1C#Cc1cnc2ccccn12
- pIC50 [1]: 5.15
- pIC50 [2]: 6.60
- pIC50 [3]: 7.96

Compound: Cc1ccc(C(=O)Nc2ccc(CN3CCN(C)CC3)c(C(F)(F)F)c2)cc1C#Cc1cnc2c(c1)OCC(=O)N2
- pIC50 [1]: 6.43
- pIC50 [2]: 7.77
- pIC50 [3]: 8.52

Compound: Cc1ccc(NC(=O)c2ccc(CN3CCN(C)CC3)c(C(F)(F)F)c2)cc1C#Cc1cnc2ccccn12
- pIC50 [1]: 5.74
- pIC50 [2]: 7.30
- pIC50 [3]: 8.70

Compound: Cc1ccc(C(=O)Nc2cc(CN3CCN(C)CC3)cc(C(F)(F)F)c2)cc1C#Cc1cnc2ccccn12
- pIC50 [1]: 5.27
- pIC50 [2]: 6.63
- pIC50 [3]: 7.96

Compound: Cc1ccc(C(=O)Nc2ccc(CN3CCOCC3)c(C(F)(F)F)c2)cc1C#Cc1cnc2ccccn12
- pIC50 [1]: 5.13
- pIC50 [2]: 6.14
- pIC50 [3]: 8.68

Compound: Cc1ccc(C(=O)Nc2ccc(CN3CCN(CCO)CC3)c(C(F)(F)F)c2)cc1C#Cc1cnc2cccnn12
- pIC50 [1]: 5.77
- AUC(0-t) at 24 h [6]: 13700 ng·h/mL
- Cmax [7]: 164 ng/mL
- half-life [8]: 2.4 h
- clearance [9]: 25.5 mL/min/kg
- half-life [4]: 3.4 h
- pIC50 [2]: 7.85
- pIC50 [3]: 8.82
- half-life [10]: 3.5 h
- AUC [5]: 145.3 ng·h/mL/mg/kg
- Vd [11]: 7.7 L/kg
- Cmax [12]: 1330 ng/mL
- bioavailability [13]: 22.3%
- Tmax [14]: 4 h

Compound: Cc1ccc(C(=O)Nc2ccc(CN3CC[C@H](N(C)C)C3)c(C(F)(F)F)c2)cc1C#Cc1cnc2ccccn12
- pIC50 [1]: 6.09
- pIC50 [2]: 7.24
- pIC50 [3]: 8.27

Compound: Cc1ccc(C(=O)Nc2ccc(CN3CCN(C)CC3)c(C(F)(F)F)c2)cc1C#Cc1cnc2[nH]ccc2c1
- pIC50 [1]: 5.70
- Cmax [7]: 71 ng/mL
- clearance [9]: 20.8 mL/min/kg
- half-life [4]: 14.3 h
- pIC50 [2]: 7.85
- pIC50 [3]: 8.36
- half-life [10]: 10.9 h
- AUC [5]: 119 ng·h/mL/mg/kg
- Vd [11]: 19.6 L/kg
- bioavailability [13]: 15%
- Tmax [14]: 6 h

Compound: Cc1ccc(C(=O)Nc2ccc(CN3CCN(C)CC3)c(C(F)(F)F)c2)cc1C#Cc1cnc2nc[nH]c2c1
- pIC50 [1]: 6.05
- Cmax [7]: 32.7 ng/mL
- clearance [9]: 34 mL/min/kg
- pIC50 [2]: 7.38
- pIC50 [3]: 8.47
- half-life [10]: 5.4 h
- AUC ([5]; BLD = below limit of detection): BLD
- Vd [11]: 15.9 L/kg
- Tmax [14]: 6 h

Compound: Cc1ccc(C(=O)Nc2ccc(CN3CCN(C)CC3)c(C(F)(F)F)c2)cc1C#Cc1cnc2ncccn12
- pIC50 [1]: 5.82
- pIC50 [2]: 6.30
- pIC50 [3]: 8.00

Compound: Cc1ccc(C(=O)Nc2ccc(CN3CCN(C)CC3)c(C(F)(F)F)c2)cc1C#Cc1cnc2cnccn12
- pIC50 [1]: 5.89
- AUC(0-t) at 24 h [6]: 2690 ng·h/mL
- Cmax [7]: 57.8 ng/mL
- half-life [8]: 2.7 h
- clearance [9]: 48.3 mL/min/kg
- half-life [4]: 5 h
- pIC50 [2]: 7.89
- pIC50 [3]: 9.05
- half-life [10]: 3.5 h
- AUC [5]: 57 ng·h/mL/mg/kg
- Vd [11]: 14.7 L/kg
- Cmax [12]: 521 ng/mL
- bioavailability [13]: 16.7%
- Tmax [14]: 4 h

Compound: Cc1ccc(C(=O)Nc2cc(-n3ccnc3)cc(C(F)(F)F)c2)cc1C#Cc1cnc2c(N)cccn12
- pIC50 [1]: 5.00
- Cmax [7]: 234 ng/mL
- clearance [9]: 6 mL/min/kg
- half-life [4]: 5.2 h
- pIC50 [2]: 7.14
- pIC50 [3]: 8.07
- half-life [10]: 15.8 h
- AUC [5]: 151.9 ng·h/mL/mg/kg
- Vd [11]: 8.2 L/kg
- bioavailability [13]: 5.5%
- Tmax [14]: 1 h

Compound: CC(=O)Nc1cccn2c(C#Cc3cc(C(=O)Nc4cc(-n5ccnc5)cc(C(F)(F)F)c4)ccc3C)cnc12
- pIC50 [1]: 5.13
- pIC50 [2]: 7.36
- pIC50 [3]: 7.96

Compound: Cc1ccc(C(=O)Nc2ccc(CN3CCN(C)CC3)c(Cl)c2)cc1C#Cc1cnc2cccnn12
- pIC50 [1]: 5.72
- pIC50 [2]: 6.68
- pIC50 [3]: 8.64

Compound: Cc1ccc(C(=O)Nc2ccc(CN3CCN(C)CC3)c(C3CC3)c2)cc1C#Cc1cnc2cccnn12
- pIC50 [1]: 5.73
- pIC50 [2]: 6.59
- pIC50 [3]: 8.41

Compound: Cc1ccc(C(=O)Nc2cccc(C(F)(F)F)c2)cc1C#Cc1cnc2cccnn12
- pIC50 [1]: 5.00
- pIC50 [2]: 5.95
- pIC50 [3]: 8.00

Compound: Cc1ccc(C(=O)Nc2ccc(CN3CCN(C)CC3)c(C(F)(F)F)c2)cc1CCc1cnc2cccnn12
- pIC50 [1]: 5.22
- pIC50 [2]: 6.53
- pIC50 [3]: 8.37

Compound: Cc1ccc(C(=O)Nc2ccc(CN3CCN(C)CC3)c(C(F)(F)F)c2)cc1/C=C/c1cnc2cccnn12
- pIC50 [1]: 5.49
- pIC50 [2]: 6.68
- pIC50 [3]: 8.10

Compound: Cc1ccc(C(=O)Nc2ccc(CN3CCNCC3)c(C(F)(F)F)c2)cc1C#Cc1cnc2cccnn12
- pIC50 [1]: 6.04
- pIC50 [2]: 7.47
- pIC50 [3]: 8.40

Compound: CN1CCN(Cc2ccc(NC(=O)c3cccc(C#Cc4cnc5cccnn45)c3)cc2C(F)(F)F)CC1
- pIC50 [1]: 5.38
- pIC50 [2]: 7.41
- pIC50 [3]: 8.64

Compound: Cc1cn(-c2cc(NC(=O)c3ccc(C)c(/C=C/n4cnc5c(NC6CC6)ncnc54)c3)cc(C(F)(F)F)c2)cn1
- pIC50 [3]: 8.14

Compound: Cc1ccc(C(=O)Nc2cc(C(F)(F)F)ccn2)cc1/C=C/n1cnc2c(NC3CC3)ncnc21
- pIC50 [3]: 8.32

Compound: Cc1ccc(C(=O)Nc2cc(-n3ccnc3)cc(C(F)(F)F)c2)cc1/C=C/n1cnc2c(NC3CC3)ncnc21
- pIC50 [3]: 8.38

Compound: Cc1ccc(C(=O)Nc2ccc(CN3CCN(C)CC3)c(C(F)(F)F)c2)cc1C#Cc1cnc2cccnn12 [PONATINIB]
- clearance [9]: 10.8 mL/min/kg
- half-life [4]: 11 h
- pIC50 [2]: 8.06
- pIC50 [3]: 8.92
- half-life [10]: 10.2 h
- AUC [5]: 278.5 ng·h/mL/mg/kg
- Vd [11]: 9.7 L/kg
- bioavailability [13]: 18.2%
- Tmax [14]: 6 h

From ChEMBL document CHEMBL1177713, “Discovery of 3-[2-(imidazo[1,2-b]pyridazin-3-yl)ethynyl]-4-methyl-N-{4-[(4-methylpiperazin-1-yl)methyl]-3-(trifluoromethyl)phenyl}benzamide (AP24534), a potent, orally active pan-inhibitor of breakpoint cluster region-abelson (BCR-ABL) kinase including the T315I gatekeeper mutant” (J Med Chem, 2010)
